The source of these data is paper PMC5844530, “Fosmetpantotenate (RE-024), a phosphopantothenate replacement therapy for pantothenate kinase-associated neurodegeneration: Mechanism of action and efficacy in nonclinical models” (PLoS ONE, 2018).

Bounds are passed on as bounds.

Data set [1] is described as follows: Stability in simulated gastric fluid. It is filed as in vitro ADME. The settings on record: simulated gi fluid, pH 1.2. The protocol: Stability in simulated gastric fluid: A stock solution of fosmetpantotenate or its individual diastereomers was prepared in 0.1% formic acid in methanol. Simulated gastric fluid, pH 1.2, was prepared with 2 g/L sodium chloride, 3.2 g/L of pepsin, and 0.7% (v/v) HCl. Gastric buffer, pH 1.2, was prepared containing 2 g/L sodium chloride and 0.7% (v/v) HCl. An appropriate aliquot of fosmetpantotenate or individual diastereomers to yield an initial concentration of 10 μM was added to both fluids, and samples were mixed at ~25°C on an orbital shaker. Aliquots (50 μL) were taken at 0, 2, and 4 h; added to 150 μL dimethyl sulfoxide (DMSO) containing an analytical internal standard; vortexed; and analyzed immediately by LC-MS/MS.
(§1) Bioanalysis for determinations of analyte stability: Samples were analyzed using a benchtop tandem quadrupole detector (TQD) mass spectrometer (Waters Ltd, Centennial Park, Hertfordshire). […] Suitable retention and peak shape with separation of the 2 diastereomers were obtained. The chromatography column was a Phenomenex-Kinetex XB C18 (2.10 x 50 mm; 2.6 μm), with a 0.7 mL/min flow rate and a 2 μL injection volume. […] The gradient was initiated with 20% B and increased linearly, reaching 40% B at 0.6 min, followed by 50% B at 0.8 min and by 95% B at 0.9 min. Conditions were kept isocratic through 1.2 min, returned to starting conditions (20% B) at 1.25 min, and maintained at 20% B through 1.5 min before the next injection. Since fosmetpantotenate is a mixture of diastereomers which are resolved chromatographically, the fosmetpantotenate MRM area corresponds to the sum of the MRM areas of the individual diastereomers.
(§2) The percent of compound remaining was determined from the MRM area response in each sample relative to that in the T = 0 samples (normalized for internal standard). Natural log plots of the percent compound remaining over time were used to determine the t½ of compound disappearance using the relationship t½ = -0.693/λ, where λ is the slope of the natural logarithm of the percent compound remaining vs time curve.

A short description of data set [2]: Metabolic stability in mouse whole blood. It is filed as in vitro ADME. The settings on record: mouse, blood. The protocol: (§3) Metabolic stability in blood and liver microsomes: Fosmetpantotenate or its individual diastereomers (5 μM, n = 2, 37°C) were incubated in mouse, rat, cynomolgus monkey, and human whole blood. Samples (50 μL) were taken at 0, 5, 15, 30, and 60 min. Incubations of fosmetpantotenate or its individual diastereomers (1 μM, n = 2, 37°C) in pooled liver microsomes (0.25 mg protein/mL in 0.1 M phosphate buffer pH 7.4) were initiated with the addition of nicotinamide adenine dinucleotide phosphate (NADPH; 1 mM). Aliquots (100 μL) were obtained at 0, 5, 10, 20, and 40 min and added to 150 μL of 0.1% formic acid in acetonitrile-containing carbamazepine (0.5 μM) as an analytical internal standard, centrifuged, and the supernatants analyzed by LC-MS/MS.
as §1, §2

The nature of data set [3]: Metabolic stability in rat whole blood. Format: in vitro ADME. The settings on record: rat, blood. The procedure: as §3, §1, §2
Data set [4] can be described thus: Metabolic stability in monkey whole blood. Format: in vitro ADME, cynomolgus monkey. The settings on record: monkey, blood. The procedure: as §3, with “Samples (50 μL) were taken at 0, 5, 15, 30, and 60 min.” left out
as §1, §2

A short description of data set [5]: Metabolic stability in human whole blood. It is filed as in vitro ADME. The settings on record: human, blood; for Percentage Remaining: 0 h. The procedure: as §3, §1, §2
The test system of data set [6] is porcine brain endothelial cell (PBEC) co-culture model.
Protocol: Permeability studies were performed after 2 days of co-culture with rat astrocytes. […] In each filter used for transport, a paracellular marker was included as an internal control to monitor the integrity of the cell monolayer. The day of the experiment, culture medium was removed and cells on Transwell inserts were pre-incubated for 30 min with Hank's Balanced Salt Solution (HBSS) containing 20 mM Hepes pH 7.4 and 0.1% bovine serum albumin (BSA). […] Aliquots from the basal compartment were taken after 1 h; fluorescence was measured using a fluorescence detector. The permeability coefficient of the total system was calculated as follows: P[cm/s]=Vd×ΔMr/A×Md×Δt Where:
To correct for the contribution of the porous polycarbonate membrane of the filter in the absence of cells, the permeability was also determined for the cell-free system. Contribution of the endothelial cell monolayer to the permeability of the cell and filter system was determined by the following equation: 1/Pe=1/Pt-1/Pf Where the total permeability of the system is denoted as Pt, the cell-free filter as Pf, and the endothelial cell layer alone as Pe. The total resistance of the system towards passage of a substance is composed of 2 resistances in series: that of the cell monolayer and that of the filter; permeability is estimated as 1/resistance [27]. […] Mass balance was determined based on the amount of compound recovered in the donor and receiver chamber at the end of the assay relative to the amount added to the donor chamber at time 0.
The nature of data set [7]: Microdialysis (brain striatal dialysate) in C57Bl6 mice. The settings on record: striatal dialysate; oral dose at 700 mg/kg; all samples; 700 mg/kg.
Protocol: Mice were anesthetized using isoflurane (2%, 800 mL/min O2).
For oral dosing experiments, MetaQuant microdialysis probes (regenerated cellulose membrane, BrainLink, the Netherlands) were inserted into the striatum (3 mm exposed surface). Coordinates for the tips of the probes for mice were anterior-posterior (AP) = +0.8 mm from bregma, lateral (L) = -1.7 mm from midline, and ventral (V) = -4.0 mm from dura, the toothbar set at 0 mm.
Microdialysis animal dosing and sample collection: Adult non-fasted male C57Bl6 mice (20–29 g; Harlan Laboratories, Livermore, CA), and Macaca fascicularis (4–9 kg, 3–6 yr old) were used for the experiments. For oral dosing, fosmetpantotenate was formulated as a solution in 20% hydroxypropyl-beta-cyclodextrin in 50 mM citrate buffer in water pH 5.0 and administered using a dose volume of 10 mL/kg. Mice (N = 6 serially sampled) received fosmetpantotenate as a single oral dose at 700 mg/kg and monkeys received a single oral dose at either 100 mg/kg (N = 4 serially sampled) or 300 mg/kg (N = 2 serially sampled).
Microdialysis: On the morning of the microdialysis experiment, a MetaQuant probe was inserted into the guide shaft targeting the head of the caudate nucleus and perfused at a rate of 0.15 μL/min aCSF containing 0.2% (w/v) BSA, with a carrier flow of 0.8 μL/min of ultrapure water.
A single 30 min pre-dose basal dialysate sample was collected from mice over -0.5 to 0 h, and three 30 min basal samples from monkeys over -1.5 to 0 h. Fosmetpantotenate was administered at t = 0, and 30 min dialysate samples were collected for an additional 4 h for mice and 3 h for monkeys.
Sample preparation for mouse dialysate samples: Concentrations of fosmetpantotenate, PA, and PPA in mouse dialysate were determined by Nextcea, Inc, Woburn, MA, using LC-MS/MS. Standard curves and QC samples containing fosmetpantotenate (D1 and D2) and the surrogate analytes for PA and PPA (^15N/^13C3-PA and ^15N/^13C3-PPA) were prepared fresh in 0.1% formic acid in water. Frozen study mouse dialysate samples were thawed in ice/water bath. Standards, QC samples, and thawed study dialysate samples (20 μL) were mixed with 20 μL 0.1% formic acid in water containing internal standard (50 ng/mL of ^15N/^13C3-fosmetpantotenate) and analyzed by LC-MS/MS.
LC-MS/MS analysis for mouse dialysate samples: Concentrations of fosmetpantotenate, PA, and PPA in dialysate from mice were determined by using LC-MS/MS conditions described for blood PK analysis by Nextcea, except dialysate samples were analyzed using an ACIEX API 5000 and flow rate was increased to 0.6 mL/min.
Quantitation of in vivo samples: Peak areas were integrated using Analyst software (AB Sciex, Concord, Ontario, Canada). Calibration curves for all blood samples from mouse and rat PK studies and mouse dialysate samples were prepared by plotting the analyte to internal standard (^15N/^13C3-fosmetpantotenate) peak area ratio vs concentration.

`COC(=O)CCNC(=O)[C@H](O)C(C)(C)COP(=O)(N[C@@H](C)C(=O)OC)Oc1ccccc1` (single isomer, unassigned) [Compound D2]: the “half-life (t½) in simulated gastric fluid” value in data set [1] was over 600 min. Besides, the Mean half-life in data set [2] was under 5 min; in data set [3] it was under 5 min; in data set [4] it was 17 min; in data set [5], over 95 min. In addition, the “Percentage Remaining” value in data set [2] (0 h) worked out at 100%; in data set [2] (5 min), 1%; in data set [2] (0.25 h), 1%; in data set [3] (0 h), 100%; in data set [3] (0.5 h), 0%; in data set [3] (1 h) it was 0%. The “Percentage Remaining” value in data set [4] (0 h) is reported as 100%; in data set [4] (2 h), 1%; in data set [5] it was 100%. For the same compound, the “In Vitro Measured Papp” value in data set [6] is recorded as 4.0 ± 1.3 10^−6 cm/s. For the same compound, the “Dialysate Conc” value in data set [7] was under 3.36 nM.
For the compound `COC(=O)CCNC(=O)[C@H](O)C(C)(C)COP(=O)(N[C@@H](C)C(=O)OC)Oc1ccccc1` (single isomer, unassigned) [Compound D1], the “half-life (t½) in simulated gastric fluid” value in data set [1] is over 600 min. Further, the Mean half-life is under 5 min in data set [2], under 5 min in data set [3], 35 min in data set [4] and 44 min in data set [5]. The “Percentage Remaining” value came out at 100% in data set [2] (0 h); 0% in data set [2] (5 min); 0% in data set [2] (0.25 h); 100% in data set [3] (0 h); 0% in data set [3] (0.5 h); 100% in data set [4] (0 h). Besides, the “Percentage Remaining” value turned out to be 88% in data set [4] (5 min) and 100% in data set [5]. Further, in data set [6], the “In Vitro Measured Papp” value was 4.8 ± 1.8 10^−6 cm/s. Moreover, in data set [7], the “Dialysate Conc” value is recorded as under 4.72 nM.
